Test system: MDA-MB-468 spheroids with HUVEC/MSC, viability
Test: Anticancer human tumor MDA-MB-468 cell line growth inhibition [PI3K];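 also: spheroids exposed to agents for seven days before readout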;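 as to viability, T/C: 100% = DMSO vehicle control viability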
Conditions: for IC50: curve of first compound; for viability, T/C: stronger effect = lower value
Description: Combinatorial screen of targeted agents with the PI3K inhibitors inavolisib, alpelisib, duvelisib, and copanlisib in multi-cell type tumor spheroids
A high-throughput screen of multi-cell type tumor spheroids was designed to identify active combinations of targeted small molecules and PI3K pathway inhibitors. Complex spheroids include a stromal component modeled by human endothelial cells (HUVEC) and fibroblasts modeled by human mesenchymal stem cells (MSCs). The concentration ranges selected for each drug and investigational agent were based upon clinically achievable concentrations if the clinical Cmax of the agent was known.
Compounds. The drugs and investigational agents: inavolisib (NSC800729), alpelisib (NSC765974), duvelisib (NSC772469), copanlisib (NSC816437), ipatasertib (NSC767898), afuresertib (NSC778305), talazoparib (NSC767125), sapanisertib (NSC764658), selumetinib (NSC741078), tovorafenib (DAY101, NSC766906), vemurafenib (NSC761431), ravoxertinib (NSC781343), sotorasib (NSC818433), MRTX1133 (NSC 836407), abemaciclib (NSC 768073), palbociclib (NSC758247), venetoclax (NSC 766270), SY5609 (NSC837396), enzalutamide (NSC755605), and darolutamide (NSC825331), were obtained from the National Cancer Institute (NCI) Developmental Therapeutics Program Chemical Repository. The FDA-approved anticancer drug set is available from the NCI Developmental Therapeutics Program. […] The stock solutions were prepared in dimethyl sulfoxide (DMSO, Sigma-Aldrich, St. Louis, MO, cat. D2650) at 800-fold the tested concentration and stored at -70 degrees C prior to their use. All drugs and investigational agents were tested over a range starting from a high concentration at or near the clinical Cmax and decreasing in half-log increments. If the clinical Cmax for an agent had not been determined, the highest concentration tested was 10 microM.
Cell Culture. All cells were maintained in an incubator at 37 degrees C and 5% CO2 with 95% humidity. The PDC lines were cultured according to standard operating procedures established by the NCI PDMR (https://pdmr.cancer.gov/sops/default.htm). All PDCs were thawed and cultured in Matrigel-coated flasks prepared with a working solution of 1X Ham's F-12 nutrient mix, without supplementation (Invitrogen, Waltham, MA, cat. 11765054), 100 U/mL penicillin-streptomycin (Invitrogen, cat. 15140122), and 2.5% Matrigel (Corning Inc., Corning, NY, cat. 354248) for the first three passages. The 354836-022-R-J1-PDC, 475296-252-R-J1-PDC, and 997726-040-R-J2-PDC lines were cultured in 6A media, which includes advanced DMEM/F-12 (Thermo Fisher Scientific, cat. 12634028), 10 mM HEPES (Thermo Fisher Scientific, cat. 15630080), 1X GlutaMAX supplement (Thermo Fisher Scientific, cat. 35050061), 0.1 mg/mL primocin (InvivoGen, San Diego, CA, cat. ant-pm-2), 10% defined fetal bovine serum, heat inactivated (HyClone Laboratories Inc., Logan, UT, cat. SH30070.03HI), 50% L-WRN conditioned media (ATCC, cat. CRL-3276), 1.25 mM N-Acetyl-L-cysteine (Sigma-Aldrich, cat. A9165), 10 mM nicotinamide (Sigma-Aldrich, cat. N0636), 1X B-27 supplement (Thermo Fisher Scientific, cat. 17504044), 1X N-2 supplement (Thermo Fisher Scientific, cat. 17502048), and 10 microM Y-27632 dihydrochloride (Tocris Bioscience, Bristol, United Kingdom, cat. 1254). The 624824-186-R-J2-PDC line was cultured in 6C/Colon 1B media, which includes all 6A media components plus 50 ng/mL human EGF recombinant protein (Thermo Fisher Scientific, cat. PHG0311). […]

[1] = second compound 0.00316 µM, first compound 0.0316 µM
[2] = second compound 0.00316 µM, first compound 0.1 µM
[3] = second compound 0.00316 µM, first compound 0.316 µM
[4] = second compound 0.00316 µM, first compound 1 µM
[5] = second compound 0.00316 µM, first compound 3.16 µM
[6] = second compound 0.00316 µM, first compound 10 µM
[7] = second compound 0.01 µM, first compound 0.0316 µM
[8] = second compound 0.01 µM, first compound 0.1 µM
[9] = second compound 0.01 µM, first compound 0.316 µM
[10] = second compound 0.01 µM, first compound 1 µM
[11] = second compound 0.01 µM, first compound 3.16 µM
[12] = second compound 0.01 µM, first compound 10 µM
[13] = second compound 0.0316 µM, first compound 0.0316 µM
[14] = second compound 0.0316 µM, first compound 0.1 µM
[15] = second compound 0.0316 µM, first compound 0.316 µM
[16] = second compound 0.0316 µM, first compound 1 µM
[17] = second compound 0.0316 µM, first compound 3.16 µM
[18] = second compound 0.0316 µM, first compound 10 µM
[19] = second compound 0.1 µM, first compound 0.0316 µM
[20] = second compound 0.1 µM, first compound 0.1 µM
[21] = second compound 0.1 µM, first compound 0.316 µM
[22] = second compound 0.1 µM, first compound 1 µM
[23] = second compound 0.1 µM, first compound 3.16 µM
[24] = second compound 0.1 µM, first compound 10 µM
[25] = second compound 0.316 µM, first compound 0.0316 µM
[26] = second compound 0.316 µM, first compound 0.1 µM
[27] = second compound 0.316 µM, first compound 0.316 µM
[28] = second compound 0.316 µM, first compound 1 µM
[29] = second compound 0.316 µM, first compound 3.16 µM
[30] = second compound 0.316 µM, first compound 10 µM
[31] = second compound 1 µM, first compound 0.0316 µM
[32] = second compound 1 µM, first compound 0.1 µM
[33] = second compound 1 µM, first compound 0.316 µM
[34] = second compound 1 µM, first compound 1 µM
[35] = second compound 1 µM, first compound 3.16 µM
[36] = second compound 1 µM, first compound 10 µM

## CC(C)NCC(C(=O)N1CCN(c2ncnc3c2C(C)CC3O)CC1)c1ccc(Cl)cc1 (stereo unspecified) + CC(Nc1ccc2c(c1)OCCn1cc(N3C(=O)OCC3C(F)F)nc1-2)C(N)=O
Second compound 0.00316 µM
  IC50: 1290 nM
Second compound 0.01 µM
  IC50: 759 nM
Second compound 0.0316 µM
  IC50: 749 nM
Second compound 0.1 µM
  IC50: 576 nM
Second compound 0.316 µM
  IC50: 678 nM
Second compound 1 µM
  IC50: 311 nM
[1]
  viability, T/C: 90.2%
[2]
  viability, T/C: 91.3%
[3]
  viability, T/C: 72.5%
[4]
  viability, T/C: 60.1%
[5]
  viability, T/C: 27.5%
[6]
  viability, T/C: 25.5%
[7]
  viability, T/C: 113%
[8]
  viability, T/C: 88%
[9]
  viability, T/C: 67.7%
[10]
  viability, T/C: 45.8%
[11]
  viability, T/C: 27.8%
[12]
  viability, T/C: 23.7%
[13]
  viability, T/C: 88.1%
[14]
  viability, T/C: 85.5%
[15]
  viability, T/C: 65.6%
[16]
  viability, T/C: 45.1%
[17]
  viability, T/C: 29.5%
[18]
  viability, T/C: 24.4%
[19]
  viability, T/C: 104%
[20]
  viability, T/C: 83.6%
[21]
  viability, T/C: 57.2%
[22]
  viability, T/C: 45.1%
[23]
  viability, T/C: 24.3%
[24]
  viability, T/C: 21.4%
[25]
  viability, T/C: 89.8%
[26]
  viability, T/C: 81.3%
[27]
  viability, T/C: 65.7%
[28]
  viability, T/C: 42.5%
[29]
  viability, T/C: 26.4%
[30]
  viability, T/C: 22%
[31]
  viability, T/C: 82.5%
[32]
  viability, T/C: 65.3%
[33]
  viability, T/C: 50.1%
[34]
  viability, T/C: 37%
[35]
  viability, T/C: 26.2%
[36]
  viability, T/C: 21.2%

## CCN1CCN(Cc2ccc(Nc3ncc(F)c(-c4cc(F)c5nc(C)n(C(C)C)c5c4)n3)nc2)CC1 + CC(Nc1ccc2c(c1)OCCn1cc(N3C(=O)OCC3C(F)F)nc1-2)C(N)=O
Second compound 0.00316 µM
  IC50: > 1000 nM
Second compound 0.01 µM
  IC50: > 1000 nM
Second compound 0.0316 µM
  IC50: > 1000 nM
Second compound 0.1 µM
  IC50: > 1000 nM
Second compound 0.316 µM
  IC50: 855 nM
Second compound 1 µM
  IC50: > 1000 nM
Second compound 0.00316 µM, first compound 0.00316 µM
  viability, T/C: 94%
Second compound 0.00316 µM, first compound 0.01 µM
  viability, T/C: 98.2%
[1]
  viability, T/C: 91.5%
[2]
  viability, T/C: 103%
[3]
  viability, T/C: 98.9%
[4]
  viability, T/C: 70.1%
Second compound 0.01 µM, first compound 0.00316 µM
  viability, T/C: 101%
Second compound 0.01 µM, first compound 0.01 µM
  viability, T/C: 117%
[7]
  viability, T/C: 83.4%
[8]
  viability, T/C: 100%
[9]
  viability, T/C: 94.5%
[10]
  viability, T/C: 70.5%
Second compound 0.0316 µM, first compound 0.00316 µM
  viability, T/C: 103%
Second compound 0.0316 µM, first compound 0.01 µM
  viability, T/C: 108%
[13]
  viability, T/C: 99.2%
[14]
  viability, T/C: 85.5%
[15]
  viability, T/C: 104%
[16]
  viability, T/C: 59.2%
Second compound 0.1 µM, first compound 0.00316 µM
  viability, T/C: 106%
Second compound 0.1 µM, first compound 0.01 µM
  viability, T/C: 95.5%
[19]
  viability, T/C: 99.2%
[20]
  viability, T/C: 105%
[21]
  viability, T/C: 89.4%
[22]
  viability, T/C: 54.3%
Second compound 0.316 µM, first compound 0.00316 µM
  viability, T/C: 106%
Second compound 0.316 µM, first compound 0.01 µM
  viability, T/C: 92.7%
[25]
  viability, T/C: 79.9%
[26]
  viability, T/C: 93.3%
[27]
  viability, T/C: 84.6%
[28]
  viability, T/C: 44.2%
Second compound 1 µM, first compound 0.00316 µM
  viability, T/C: 108%
Second compound 1 µM, first compound 0.01 µM
  viability, T/C: 81.7%
[31]
  viability, T/C: 88.6%
[32]
  viability, T/C: 88.3%
[33]
  viability, T/C: 88.3%
[34]
  viability, T/C: 51.8%

## Cn1ncc(Cl)c1-c1cc(C(=O)NC(CN)Cc2cccc(F)c2)sc1Cl (stereo unspecified) + CC(Nc1ccc2c(c1)OCCn1cc(N3C(=O)OCC3C(F)F)nc1-2)C(N)=O
Second compound 0.00316 µM
  IC50: 306 nM
Second compound 0.01 µM
  IC50: 359 nM
Second compound 0.0316 µM
  IC50: 284 nM
Second compound 0.1 µM
  IC50: 229 nM
Second compound 0.316 µM
  IC50: 157 nM
Second compound 1 µM
  IC50: 133 nM
[1]
  viability, T/C: 89.7%
[2]
  viability, T/C: 72.2%
[3]
  viability, T/C: 42.9%
[4]
  viability, T/C: 35.6%
[5]
  viability, T/C: 22%
[6]
  viability, T/C: 7.53%
[7]
  viability, T/C: 83.7%
[8]
  viability, T/C: 74.4%
[9]
  viability, T/C: 44.8%
[10]
  viability, T/C: 36.4%
[11]
  viability, T/C: 25.6%
[12]
  viability, T/C: 5.85%
[13]
  viability, T/C: 91.2%
[14]
  viability, T/C: 71.8%
[15]
  viability, T/C: 39.9%
[16]
  viability, T/C: 33.7%
[17]
  viability, T/C: 22.1%
[18]
  viability, T/C: 3.85%
[19]
  viability, T/C: 78.7%
[20]
  viability, T/C: 63.6%
[21]
  viability, T/C: 39.8%
[22]
  viability, T/C: 33.6%
[23]
  viability, T/C: 20.8%
[24]
  viability, T/C: 4.34%
[25]
  viability, T/C: 75.8%
[26]
  viability, T/C: 59.6%
[27]
  viability, T/C: 33.8%
[28]
  viability, T/C: 27.5%
[29]
  viability, T/C: 19.2%
[30]
  viability, T/C: 4.28%
[31]
  viability, T/C: 76.2%
[32]
  viability, T/C: 53%
[33]
  viability, T/C: 37.2%
[34]
  viability, T/C: 21.8%
[35]
  viability, T/C: 18.9%
[36]
  viability, T/C: 3.04%
